Data: US11623869B2 (UNIVERSIDADE ESTADUAL DE CAMPINAS—UNICAMP, priority 2017, dated 2023)

Test system: non-muscle invasive bladder cancer (CBNMI)
Assay: Adjuvancy of intravesical MRB-CFI-1 and systemic cisplatin in NMIBC rats, histopathology
Type: in vivo, Fischer 344 female rats
From the text: The protocol for use of animals in research was approved by the Ethics Committee on the Use of Animals (CEUA)—UNICAMP (protocol number: 4324-1).

[1] = MNU rats, MRB-CFI-1 intravesical 20 mg/kg 6 weeks and/or cisplatin i.p. […] weekly 4 weeks, n = 7

Compound: N.N.[Cl][Pt][Cl] [cisplatin]
- decrease in the progression of urothelial neoplastic lesions, percentage of animals (MNU rats, same treatments): 14.28%
- Carcinoma in situ (Ptis), percentage of animals [1]: 14.28%
- Papillary carcinoma (pTa), percentage of animals [1]: 57.14%
- Papilliferous hyperplasia, percentage of animals [1]: 14.28%
- Urothelial carcinoma with lamina propria invasion (pT1), percentage of animals [1]: 14.28%
- Carcinoma in situ (Ptis), number of animals (same treatments, of n = 7): 1
- Papillary carcinoma (pTa), number of animals (same treatments, of n = 7): 4
- Papilliferous hyperplasia, number of animals (same treatments, of n = 7): 1
- Urothelial carcinoma with lamina propria invasion (pT1), number of animals (same treatments, of n = 7): 1
